From US20240219373A1, “METHOD FOR EVALUATING EFFICACY OF ANTICANCER DRUG OR SCREENING ANTICANCER DRUG” (ORGANOIDSCIENCES LTD., priority 2021, published 2024)

Assays:
Format in all cases: cell-based, human
lung cancer organoids [1] = experiment: Growth and death rate of lung cancer organoids co-cultured with TILs
Protocol: (§1) Specifically, the inventors set a mixing ratio satisfying co-culture conditions under which (1) cancer organoids grow properly and (2) drug efficacy is well observed. Cancer organoids were prepared using cancer cells isolated from tumor tissues of lung cancer or colorectal cancer patients, and TILs obtained by co-culture with cancer organoids for 14 days according to Example 1.1 were used.
(§2) Herein, the number of organoids or TILs was set to 1 for 5.0×10^3.
(§3) In addition, for the co-cultures of cancer organoids and TILs according to the ratio above, those not treated with the drug were set as the control group (hereinafter referred to as ‘drug-untreated group’), and those treated with atezolizumab, which is currently marketed and used for a cancer treatment, as an exemplary drug were set as the experimental group (hereinafter referred to as ‘drug-treated group’). After co-culturing for 72 hours, the growth rate was measured immediately after the start of the co-culture (0 h), after 24 hours (24 h), after 48 hours (48 h) and after 72 hours (72 h), respectively, and the death rate was analyzed by the following method through the measured growth rate: Cancer organoid death rate (%)=[1−(growth rate of cancer organoids in the drug-treated group*)/(growth rate of cancer organoids in the drug-untreated group**)]×100

[2] = tested on: cancer organoids derived from colorectal cancer patients; experiment: Overall efficacy (organoid area change, HCS) in co-culture of cancer organoids, CD8+ T cells and M1; conditions: Groups 1, 3, 6 and 8: cancer organoids:M1 fixed 1:1, CD8+ T cell ratio changes; 10 nM; 72 hours
Source text: In order to confirm whether the screening system composed of cancer organoids, CD8+ T cells and M1 as confirmed in Example 1.1 can be used to evaluate the efficacy of a drug, the death rate of cancer organoids by phagocytosis was observed after treating the system with an anti-PD-L1 antibody atezolizumab previously used as an immuno-anticancer drug, anti-CD47 antibody and a combination thereof.
Atezolizumab activates CD8+ T cells by binding to PD-L1 on cancer cells and blocking the PD-1/PD-L1 mechanism, and anti-CD47 antibody activates macrophages by binding to […] and blocking the SIRP-a/CD47 mechanism. […]
Then, they were co-cultured, and treated with 10 nM of Atezolizumab (Selleck, #A2004) which is anti-PD-L1 antibody and/or 10 nM of anti-CD47 antibody. After that, the death rate of cancer organoids or M1 was analyzed at each ratio. Herein, the ratio of the CD8+ T cells and M1 was tested in a narrower range than the ratio applied in Example 1.1, and the changes in organoid area for 72 hours after drug treatment was analyzed by HCS (High-Content Screening). After 72 hours from drug treatment, the overall efficacy was evaluated by calculating the change in the organoid area of the drug-treated group compared to the organoid area of the non-treated group.

[3] = tested on: colorectal cancer organoids; experiment: Growth and death rate of colorectal cancer organoids co-cultured with CD8+ T cells and DCs
Protocol: (§4) Specifically, in order to establish a co-culture system in which cancer organoids, cytotoxic T cells (hereinafter referred to as ‘CD8+ T cells’) and dendritic cells (hereinafter referred to as ‘DC’) coexist, the inventors set a mixing ratio satisfying co-culture conditions under which (1) cancer organoids grow properly and (2) drug efficacy is well observed. […] Herein, the number of organoids or cells was set to 1 for 5.0×10^3.
(§5) Cancer organoids were prepared to have a 3D structure by isolating colorectal cancer or lung cancer tissues obtained from patients into single cells and culturing them together with ECM (extracellular matrix). The formed cancer organoids were confirmed to be tumors through pathological analysis, and used after being isolated into single cells using Tryp-LE.
(§6) CD8+ T cells isolated from PBMCs were used. PBMCs were isolated from blood obtained from donors by using Ficoll, and CD8+ T cells were isolated through MACS after a T cell activation process.
(§7) DCs differentiated from iPSCs were used, and DCs were differentiated from the H9 cell line using a general method known in the art.
(§8) Specifically, for the co-cultures of cancer organoids, CD8+ T cells and DCs according to the mixing ratio in Table 7 above, those not treated with the drug were set as the control group (hereinafter referred to as ‘drug-untreated group’), and those treated with an atezolizumab targeting CD8+ T cells as an exemplary drug were set as the experimental group (hereinafter referred to as ‘drug-treated group’). Drugs were treated immediately after the start of co-culture, and the growth rate of cancer organoids was measured immediately after the start of the co-culture (0 h), after 24 hours (24 h), after 48 hours (48 h) and after 72 hours (72 h), respectively. The death rate was analyzed by the following method through the measured growth rate.

[4] = tested on: colorectal cancer organoids; experiment: Death rate of colorectal cancer organoids co-cultured with CD8+ T cells and Tregs; conditions: 72 h
Protocol: (§9) Herein, the number of organoids or cells was set to 1 for 5.0×10^3.
(§10) Cancer organoids were prepared using stem cells isolated from tumor tissue of colorectal cancer or lung cancer patients. The isolated stem cells were mixed with ECM (extracellular matrix) to grow into a 3D structure to make a dome, and then organoids were formed and used through culture. CD8+ T cells and Tregs were obtained from blood obtained from colorectal cancer or lung cancer patients. Immune cells present in the blood were differentiated, and CD8+ and Treg cells were isolated from the differentiated immune cells using a MACS (magnetic activated cell sorting) method.
(§11) Specifically, for the co-cultures of cancer organoids, CD8+ T cells and Tregs according to the mixing ratio in Table 6 above, those not treated with the drug were set as the control group (hereinafter referred to as ‘drug-untreated group’), and those treated with an atezolizumab targeting CD8+ T cells or an anti-TIGIT antibody targeting CD8+ T cells or Tregs as an exemplary drug were set as the experimental group (hereinafter referred to as ‘drug-treated group’). After co-culturing them for 72 hours, the growth rate was measured after 72 hours of drug treatment (72 h), and the death rate was analyzed by the following method through the measured growth rate.

lung cancer organoids [5] = experiment: Death rate of lung cancer organoids co-cultured with CD8+ T cells and Tregs; conditions: 72 h
Protocol: as §9, §10, §11

[6] = tested on: colorectal cancer organoids; experiment: Growth and death rate of colorectal cancer organoids co-cultured with TILs
Protocol: as §1, §2, §3

lung cancer organoids [7] = experiment: Growth and death rate of lung cancer organoids co-cultured with CD8+ T cells and DCs
Protocol: as §4, §5, §6, §7, §8

[8] = lung cancer organoids:TILs 1:0.5
[9] = lung cancer organoids:TILs 1:1.5
[10] = colorectal cancer organoids:TILs 1:0.5
[11] = colorectal cancer organoids:TILs 1:1.5

## atezolizumab
Lung cancer organoids [1]; [8]
  death rate of lung cancer organoids: about 5%
  response of lung cancer organoids (growth rate and death rate vs control group): did not respond to the drug
Lung cancer organoids [1]; [9]
  anticancer effects on lung cancer organoids (growth, death): inhibiting the growth and increasing death
  death rate of lung cancer organoids: about 20%
Lung cancer organoids [1]; lung cancer organoids:TILs 1:3
  death rate of lung cancer organoids: about 5%
[2]
  growth inhibition and death of cancer organoids (overall efficacy): high
[3]; colorectal cancer organoids:CD8+ T cells 1:0.5, DC 0.5 to 5, 72 h
  death rate of cancer organoids, maximum level: about 5%
[3]; colorectal cancer organoids:CD8+ T cells 1:1, DC 0.5 to 5, 72 h
  maximum death rate of cancer organoids: about 10%
[3]; colorectal cancer organoids:CD8+ T cells:DCs 1:0.5:0.5 to 5
  growth of cancer organoids: did not significantly inhibit the growth
[3]; colorectal cancer organoids:CD8+ T cells:DCs 1:1 to 3:0.5 to 5
  growth of cancer organoids: inhibited the growth
[4]; colorectal cancer organoids:CD8+ T cells 1:1, Treg 0.5 to 3
  death rate of cancer organoids, maximum level: about 10%
[4]; colorectal cancer organoids:CD8+ T cells 1:3, with Tregs
  death rate of cancer organoids: about 25%
[4]; colorectal cancer organoids:CD8+ T cells 1:3, without Tregs
  death rate of cancer organoids: about 26%
[4]; colorectal cancer organoids:Tregs 1:3, without CD8+ T cells
  death rate of cancer organoids: about 2%
Lung cancer organoids [5]; lung cancer organoids:CD8+ T cells 1:1, Treg 0.5 to 3
  death rate of cancer organoids, maximum level: about 10%
Lung cancer organoids [5]; lung cancer organoids:CD8+ T cells 1:3, with Tregs
  death rate of cancer organoids: about 25%
Lung cancer organoids [5]; lung cancer organoids:CD8+ T cells 1:3, without Tregs
  death rate of cancer organoids: about 27%
Lung cancer organoids [5]; lung cancer organoids:Tregs 1:3, without CD8+ T cells
  death rate of cancer organoids: about 1%
[6]; [10]
  death rate of colorectal cancer organoids: about 5%
  response of colorectal cancer organoids (growth rate and death rate vs control group): did not respond to the drug
[6]; [11]
  anticancer effects on colorectal cancer organoids (growth, death): inhibiting the growth and increasing death
  death rate of colorectal cancer organoids: about 10%
[6]; colorectal cancer organoids:TILs 1:3
  death rate of colorectal cancer organoids: about 5%
Lung cancer organoids [7]; lung cancer organoids:CD8+ T cells 1:0.5, DC 0.5 to 5, 72 h
  death rate of cancer organoids, maximum level: about 5%
Lung cancer organoids [7]; lung cancer organoids:CD8+ T cells 1:1, DC 0.5 to 5, 72 h
  maximum death rate of cancer organoids: about 10%
Lung cancer organoids [7]; lung cancer organoids:CD8+ T cells:DCs 1:0.5:0.5 to 5 or 1:1:0.5 to 1
  growth of cancer organoids: did not significantly inhibit the growth
Lung cancer organoids [7]; lung cancer organoids:CD8+ T cells:DCs 1:1:5 or 1:3:0.5 to 5
  growth of cancer organoids: inhibited the growth
